US10906873B2, “Substituted cyclic amides as herbicides” (FMC Corporation, priority 2015, dated 2021)

What follows are compounds tested on kochia (Kochia scoparia) (assay: Test A preemergence, kochia). Details: 125 g ai/ha, 0 to 100 scale.
Assay type: in vivo
Method in brief: (§1)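 Visual injury ratings, 0 = no effect to 100 = complete control, made versus untreated controls after about 10 d in greenhouse. Chemicals formulated in solvent mixture containing surfactant were sprayed on loam-sand soil after seeding (preemergence) or onto plants at one- to two-leaf stage, 2-10 cm (postemergence).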
For `Cc1cccc(C#CC2CNC(=O)C2C(=O)Nc2ccc(F)c(F)c2F)c1` (stereo not drawn) [Compound 23], the “Plant response rating, Kochia” value was 0.

Same assay, conditions: 500 g ai/ha, 0 to 100 scale
In the case of `Cc1cccc(C#CC2CNC(=O)C2C(=O)Nc2ccc(F)c(F)c2F)c1` (stereo not drawn) [Compound 23], the “Plant response rating, Kochia” value is reported as 0.

These compounds were tested on barnyardgrass (Echinochloa crus-galli) (assay: Test B flooded paddy test, barnyardgrass). Details: Flood, 250 g ai/ha; scale of 0 to 100 where 0 is no effect and 100 is complete control; 13 to 15 d.
Assay type: in vivo
Method in brief: (§2)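 Ratings use a 0-100 visual scale, where 100 is complete control, and compare treated plants with controls after 13 to 15 d of greenhouse growth. Compound went straight into paddy water kept 3 cm over the soil surface, applied to seedlings at the 2-leaf stage.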
With `Cc1cccc(C#CC2CNC(=O)C2C(=O)Nc2ccc(F)c(F)c2F)c1` (stereo not drawn) [Compound 23] the “Plant response rating, Barnyardgrass” value was 0.

The compounds below were run on ragweed (common ragweed, Ambrosia elatior) (assay: Test A preemergence, ragweed). Details: 125 g ai/ha, 0 to 100 scale.
Assay type: in vivo
Method in brief: as §1
`Cc1cccc(C#CC2CNC(=O)C2C(=O)Nc2ccc(F)c(F)c2F)c1` (stereo not drawn) [Compound 23] was tested, and the “Plant response rating, Ragweed” value was 0.

Same assay, conditions: 500 g ai/ha, 0 to 100 scale
With `Cc1cccc(C#CC2CNC(=O)C2C(=O)Nc2ccc(F)c(F)c2F)c1` (stereo not drawn) [Compound 23] the “Plant response rating, Ragweed” value was 0.

Each compound was assayed on ryegrass, It. (Italian ryegrass, Lolium multiflorum) (assay: Test A preemergence, ryegrass, It.). Details: 125 g ai/ha, 0 to 100 scale.
Assay type: in vivo
Method in brief: as §1
For `Cc1cccc(C#CC2CNC(=O)C2C(=O)Nc2ccc(F)c(F)c2F)c1` (stereo not drawn) [Compound 23], the “Plant response rating, Ryegrass, It.” value was 0.

Same assay, conditions: 500 g ai/ha, 0 to 100 scale
`Cc1cccc(C#CC2CNC(=O)C2C(=O)Nc2ccc(F)c(F)c2F)c1` (stereo not drawn) [Compound 23] was tested, and the “Plant response rating, Ryegrass, It.” value was 0.

Each compound was assayed on ragweed (common ragweed, Ambrosia elatior) (assay: Test A postemergence, ragweed). Details: 125 g ai/ha, 0 to 100 scale.
Assay type: in vivo
Method in brief: as §1
In the case of `Cc1cccc(C#CC2CNC(=O)C2C(=O)Nc2ccc(F)c(F)c2F)c1` (stereo not drawn) [Compound 23], the “Plant response rating, Ragweed” value is reported as 0.

Same assay, conditions: 500 g ai/ha, 0 to 100 scale
For `Cc1cccc(C#CC2CNC(=O)C2C(=O)Nc2ccc(F)c(F)c2F)c1` (stereo not drawn) [Compound 23], the “Plant response rating, Ragweed” value was 0.

What follows are compounds tested on ryegrass, It. (Italian ryegrass, Lolium multiflorum) (assay: Test A postemergence, ryegrass, It.). Details: 125 g ai/ha, 0 to 100 scale.
Assay type: in vivo
Method in brief: as §1
For `Cc1cccc(C#CC2CNC(=O)C2C(=O)Nc2ccc(F)c(F)c2F)c1` (stereo not drawn) [Compound 23], the “Plant response rating, Ryegrass, It.” value was 0.

Same assay, conditions: 500 g ai/ha, 0 to 100 scale
In the case of `Cc1cccc(C#CC2CNC(=O)C2C(=O)Nc2ccc(F)c(F)c2F)c1` (stereo not drawn) [Compound 23], the “Plant response rating, Ryegrass, It.” value is reported as 0.

Each compound was assayed on blackgrass (Alopecurus myosuroides) (assay: Test A postemergence, blackgrass). Details: 125 g ai/ha, 0 to 100 scale.
Assay type: in vivo
Method in brief: as §1
`Cc1cccc(C#CC2CNC(=O)C2C(=O)Nc2ccc(F)c(F)c2F)c1` (stereo not drawn) [Compound 23] was tested, and the “Plant response rating, Blackgrass” value was 0.

Same assay, conditions: 500 g ai/ha, 0 to 100 scale
`Cc1cccc(C#CC2CNC(=O)C2C(=O)Nc2ccc(F)c(F)c2F)c1` (stereo not drawn) [Compound 23] was tested, and the “Plant response rating, Blackgrass” value was 0.

What follows are compounds tested on foxtail, giant (giant foxtail, Setaria faberii) (assay: Test A preemergence, foxtail, giant). Details: 125 g ai/ha, 0 to 100 scale.
Assay type: in vivo
Method in brief: as §1
With `Cc1cccc(C#CC2CNC(=O)C2C(=O)Nc2ccc(F)c(F)c2F)c1` (stereo not drawn) [Compound 23] the “Plant response rating, Foxtail, Giant” value was 40.

Same assay, conditions: 500 g ai/ha, 0 to 100 scale
`Cc1cccc(C#CC2CNC(=O)C2C(=O)Nc2ccc(F)c(F)c2F)c1` (stereo not drawn) [Compound 23] was tested, and the “Plant response rating, Foxtail, Giant” value was 80.

Each compound was assayed on kochia (Kochia scoparia) (assay: Test A postemergence, kochia). Details: 125 g ai/ha, 0 to 100 scale.
Assay type: in vivo
Method in brief: as §1
In the case of `Cc1cccc(C#CC2CNC(=O)C2C(=O)Nc2ccc(F)c(F)c2F)c1` (stereo not drawn) [Compound 23], the “Plant response rating, Kochia” value is reported as 0.

Same assay, conditions: 500 g ai/ha, 0 to 100 scale
For `Cc1cccc(C#CC2CNC(=O)C2C(=O)Nc2ccc(F)c(F)c2F)c1` (stereo not drawn) [Compound 23], the “Plant response rating, Kochia” value was 20.

The compounds below were run on ducksalad (Heteranthera limosa) (assay: Test B flooded paddy test, ducksalad). Details: Flood, 250 g ai/ha; scale of 0 to 100 where 0 is no effect and 100 is complete control; 13 to 15 d.
Assay type: in vivo
Method in brief: as §2
For `Cc1cccc(C#CC2CNC(=O)C2C(=O)Nc2ccc(F)c(F)c2F)c1` (stereo not drawn) [Compound 23], the “Plant response rating, Ducksalad” value was 0.

What follows are compounds tested on sedge, umbrella (small-flower umbrella sedge, Cyperus difformis) (assay: Test B flooded paddy test, sedge, umbrella). Details: Flood, 250 g ai/ha; scale of 0 to 100 where 0 is no effect and 100 is complete control; 13 to 15 d.
Assay type: in vivo
Method in brief: as §2
In the case of `Cc1cccc(C#CC2CNC(=O)C2C(=O)Nc2ccc(F)c(F)c2F)c1` (stereo not drawn) [Compound 23], the “Plant response rating, Sedge, Umbrella” value is reported as 0.

These compounds were tested on corn (Zea mays) (assay: Test A postemergence, corn). Details: 125 g ai/ha, 0 to 100 scale.
Assay type: in vivo
Method in brief: as §1
In the case of `Cc1cccc(C#CC2CNC(=O)C2C(=O)Nc2ccc(F)c(F)c2F)c1` (stereo not drawn) [Compound 23], the “Plant response rating, Corn” value is reported as 0.

Same assay, conditions: 500 g ai/ha, 0 to 100 scale
`Cc1cccc(C#CC2CNC(=O)C2C(=O)Nc2ccc(F)c(F)c2F)c1` (stereo not drawn) [Compound 23] was tested, and the “Plant response rating, Corn” value was 0.

Each compound was assayed on pigweed (Amaranthus retroflexus) (assay: Test A postemergence, pigweed). Details: 125 g ai/ha, 0 to 100 scale.
Assay type: in vivo
Method in brief: as §1
For `Cc1cccc(C#CC2CNC(=O)C2C(=O)Nc2ccc(F)c(F)c2F)c1` (stereo not drawn) [Compound 23], the “Plant response rating, Pigweed” value was 0.

Same assay, conditions: 500 g ai/ha, 0 to 100 scale
In the case of `Cc1cccc(C#CC2CNC(=O)C2C(=O)Nc2ccc(F)c(F)c2F)c1` (stereo not drawn) [Compound 23], the “Plant response rating, Pigweed” value is reported as 0.

Each compound was assayed on rice (Oryza sativa) (assay: Test B flooded paddy test, rice). Details: Flood, 250 g ai/ha; scale of 0 to 100 where 0 is no effect and 100 is complete control; 13 to 15 d.
Assay type: in vivo
Method in brief: as §2
With `Cc1cccc(C#CC2CNC(=O)C2C(=O)Nc2ccc(F)c(F)c2F)c1` (stereo not drawn) [Compound 23] the “Plant response rating, Rice” value was 0.

The compounds below were run on galium (catchweed bedstraw, Galium aparine) (assay: Test A postemergence, galium). Details: 125 g ai/ha, 0 to 100 scale.
Assay type: in vivo
Method in brief: as §1
With `Cc1cccc(C#CC2CNC(=O)C2C(=O)Nc2ccc(F)c(F)c2F)c1` (stereo not drawn) [Compound 23] the “Plant response rating, Galium” value was 0.

Same assay, conditions: 500 g ai/ha, 0 to 100 scale
For `Cc1cccc(C#CC2CNC(=O)C2C(=O)Nc2ccc(F)c(F)c2F)c1` (stereo not drawn) [Compound 23], the “Plant response rating, Galium” value was 20.

Each compound was assayed on barnyardgrass (Echinochloa crus-galli) (assay: Test A postemergence, barnyardgrass). Details: 125 g ai/ha, 0 to 100 scale.
Assay type: in vivo
Method in brief: as §1
In the case of `Cc1cccc(C#CC2CNC(=O)C2C(=O)Nc2ccc(F)c(F)c2F)c1` (stereo not drawn) [Compound 23], the “Plant response rating, Barnyardgrass” value is reported as 20.

Same assay, conditions: 500 g ai/ha, 0 to 100 scale
With `Cc1cccc(C#CC2CNC(=O)C2C(=O)Nc2ccc(F)c(F)c2F)c1` (stereo not drawn) [Compound 23] the “Plant response rating, Barnyardgrass” value was 50.

Each compound was assayed on foxtail, giant (giant foxtail, Setaria faberii) (assay: Test A postemergence, foxtail, giant). Details: 125 g ai/ha, 0 to 100 scale.
Assay type: in vivo
Method in brief: as §1
With `Cc1cccc(C#CC2CNC(=O)C2C(=O)Nc2ccc(F)c(F)c2F)c1` (stereo not drawn) [Compound 23] the “Plant response rating, Foxtail, Giant” value was 20.

Same assay, conditions: 500 g ai/ha, 0 to 100 scale
For `Cc1cccc(C#CC2CNC(=O)C2C(=O)Nc2ccc(F)c(F)c2F)c1` (stereo not drawn) [Compound 23], the “Plant response rating, Foxtail, Giant” value was 50.

The compounds below were run on pigweed (Amaranthus retroflexus) (assay: Test A preemergence, pigweed). Details: 125 g ai/ha, 0 to 100 scale.
Assay type: in vivo
Method in brief: as §1
In the case of `Cc1cccc(C#CC2CNC(=O)C2C(=O)Nc2ccc(F)c(F)c2F)c1` (stereo not drawn) [Compound 23], the “Plant response rating, Pigweed” value is reported as 0.

Same assay, conditions: 500 g ai/ha, 0 to 100 scale
For `Cc1cccc(C#CC2CNC(=O)C2C(=O)Nc2ccc(F)c(F)c2F)c1` (stereo not drawn) [Compound 23], the “Plant response rating, Pigweed” value was 0.

Each compound was assayed on wheat (Triticum aestivum) (assay: Test A postemergence, wheat). Details: 125 g ai/ha, 0 to 100 scale.
Assay type: in vivo
Method in brief: as §1
In the case of `Cc1cccc(C#CC2CNC(=O)C2C(=O)Nc2ccc(F)c(F)c2F)c1` (stereo not drawn) [Compound 23], the “Plant response rating, Wheat” value is reported as 0.

Same assay, conditions: 500 g ai/ha, 0 to 100 scale
In the case of `Cc1cccc(C#CC2CNC(=O)C2C(=O)Nc2ccc(F)c(F)c2F)c1` (stereo not drawn) [Compound 23], the “Plant response rating, Wheat” value is reported as 0.

Each compound was assayed on barnyardgrass (Echinochloa crus-galli) (assay: Test A preemergence, barnyardgrass). Details: 125 g ai/ha, 0 to 100 scale.
Assay type: in vivo
Method in brief: as §1
`Cc1cccc(C#CC2CNC(=O)C2C(=O)Nc2ccc(F)c(F)c2F)c1` (stereo not drawn) [Compound 23] was tested, and the “Plant response rating, Barnyardgrass” value was 60.

Same assay, conditions: 500 g ai/ha, 0 to 100 scale
For `Cc1cccc(C#CC2CNC(=O)C2C(=O)Nc2ccc(F)c(F)c2F)c1` (stereo not drawn) [Compound 23], the “Plant response rating, Barnyardgrass” value was 80.
